The subject of the test is termite Prorhinotermes simplex. Description: Force feeding test (FF): juvenilizing effect (induction of soldier caste differentiation) on termite pseudergates. It counts as in vivo. To be noted: 500 ppm in treated food, 60 pseudergates, 16 days, soldier caste induction in percents of surviving individuals. The source says: A Way of Screening of the Biological Activity of the Compound Claimed in the claim 1 of the General Formula I Against Termite Prorhinotermes Simplex
Termites have only a sample of food treated with the compound claimed in the claim 1 of the general formula I in the force feeding test (FF), but a choice between a sample of food treated with the compound claimed in the claim 1 of the general formula I and a reference sample of food treated with acetone only. A treatment of the food samples with the compound I claimed in the claim 1 has been made in at least two concentrations, 500 ppm and 5 ppm. A number of 60 pseudergates was exposed to a treatment in each test, and each test is twice repeated. Each test has 16 days duration. The induction of the soldier caste differentiation has been evaluated as the juvenilizing effect. The result is given in percents of the number of surviving individuals. The juvenoid methoprene has been used as the reference compound for testing of the biological activity of the compound I claimed in the claim 1. The results of screening of several structures corresponding the general formula I claimed in the claim 1 in a concentration of 500 ppm are given in Table 1.

On to `COC(C)(C)CCC[C@H](C)C/C=C/C(C)=C/C(=O)OC(C)C` (racemic) [Methoprene, methoprene, reference compound], for which the “Juvenilizing effect [%]” value came out at 1.3%.
Next, `CCCCCCCC/C=C\CCCCCCCC(=O)O[C@H]1CCCC[C@H]1Cc1ccc(OCCNC(=O)OCC)cc1` (relative stereo) [Ethyl N-{2-{4-[(cis-2-(cis-9-octadecenoyl)oxycyclohexyl)methyl]phenoxy}ethyl} carbamate]: 93.7%; `CCCC(=O)O[C@H]1CCCC[C@H]1Cc1ccc(OCCNC(=O)OCC)cc1` (relative stereo) [Ethyl N-{2-{4-[(cis-2-butanoyloxycyclohexyl)methyl]phenoxy}ethyl} carbamate]: 86.1%; `CCCCCCCCCCCCCCCC(=O)O[C@H]1CCCC[C@H]1Cc1ccc(OCCNC(=O)OCC)cc1` (relative stereo) [Ethyl N-{2-{4-[(cis-2-hexadecanoyloxycyclohexyl)methyl]phenoxy}ethyl} carbamate]: 89.1%.
The value for `CCCCCCCCCCCCCCCCCC(=O)O[C@H]1CCCC[C@H]1Cc1ccc(OCCNC(=O)OCC)cc1` (relative stereo) [Ethyl N-{2-{4-[(cis-2-octadecanoyloxycyclohexyl)methyl]phenoxy}ethyl} carbamate] was 40.0%.
Next, `CCCCCCCC/C=C\CCCCCCCC(=O)O[C@@H]1CCCC[C@H]1Cc1ccc(OCCNC(=O)OCC)cc1` (relative stereo) [Ethyl N-{2-{4-[(trans-2-(cis-9-octadecenoyl)oxycyclohexyl)methyl]phenoxy}ethyl} carbamate]: 64.7%; `CCCC(=O)O[C@@H]1CCCC[C@H]1Cc1ccc(OCCNC(=O)OCC)cc1` (relative stereo) [Ethyl N-{2-{4-[(trans-2-butanoyloxycyclohexyl)methyl]phenoxy}ethyl} carbamate]: 87.4%.
With `CCCCCCCCCCCCCCCC(=O)O[C@@H]1CCCC[C@H]1Cc1ccc(OCCNC(=O)OCC)cc1` (relative stereo) [Ethyl N-{2-{4-[(trans-2-hexadecanoyloxycyclohexyl)methyl]phenoxy}ethyl} carbamate], the “Juvenilizing effect [%]” value is given as 90.1%.
Next, `CCCCCCCCCCCCCCCCCC(=O)O[C@@H]1CCCC[C@H]1Cc1ccc(OCCNC(=O)OCC)cc1` (relative stereo) [Ethyl N-{2-{4-[(trans-2-octadecanoyloxycyclohexyl)methyl]phenoxy}ethyl} carbamate]: 70.0%.
